Reference: ChEMBL document CHEMBL4831516, “Development of Membrane-Active Honokiol/Magnolol Amphiphiles as Potent Antibacterial Agents against Methicillin-Resistant Staphylococcus aureus (MRSA)” (J Med Chem, 2021)
The source made the active and inactive calls. The rule behind the calls is not given here.

Columns and labels:
Staphylococcus aureus [1] = test: Antibacterial activity against methicillin-resistant Staphylococcus aureus clinical isolate 16 infected in BALB/c mouse assessed as reduction in inflammatory cell inflammation in spleen at 25 mg/kg, sc once a day for 3 days by H and E staining based assay; format: functional, organism-based; conditions: time 3.0 day
Cell membrane [2] = test: Induction of membrane morphological changes in methicillin-resistant Staphylococcus aureus clinical isolate 16 assessed as intact and smooth surface at 10 ug/ml by scanning electron microscopy; format: subcellular; conditions: dose 10.0 µg/ml
[3] = Hemolytic activity in sheep RBC assessed as hemolysis incubated for 1 hr; format: ADME, cell-based, Ovis aries, Erythrocyte; conditions: sheep red blood cells (erythrocytes)
Escherichia coli = test: Antibacterial activity against Escherichia coli ATCC25922 assessed as inhibition of visible growth incubated for 16 to 18 hrs by CLSI method; format: functional; conditions: time 16-18 hrs, read-out: MIC100
Cell membrane [4] = test: Induction of membrane disruption in methicillin-resistant Staphylococcus aureus clinical isolate 16 assessed as increase in green fluorescence at 10 ug/ml by SYTOX green staining based confocal laser scanning microscopy; format: subcellular; conditions: dose 10.0 µg/ml
Staphylococcus aureus [5] = test: Antibacterial activity against methicillin-resistant Staphylococcus aureus clinical isolate M-13 assessed as inhibition of visible growth incubated for 16 to 18 hrs by CLSI method; format: functional; conditions: time 16-18 hrs, read-out: MIC100
Micrococcus luteus = test: Antibacterial activity against Micrococcus luteus assessed as inhibition of visible growth incubated for 16 to 18 hrs by CLSI method; format: functional; conditions: time 16-18 hrs, read-out: MIC100
Staphylococcus aureus [6] = test: Antibacterial activity against methicillin-resistant Staphylococcus aureus clinical isolate M-17 assessed as inhibition of visible growth incubated for 16 to 18 hrs by CLSI method; format: functional; conditions: time 16-18 hrs, read-out: MIC100
Staphylococcus aureus [7] = test: Antibacterial activity against […] assessed as fold increase in MIC at sublethal concentration treated over 20 serial passages by resistance development assay; format: functional
Salmonella enterica = test: Antibacterial activity against Salmonella enterica 8389 assessed as inhibition of visible growth incubated for 16 to 18 hrs by CLSI method; format: functional; conditions: time 16-18 hrs, read-out: MIC100
Cell membrane [8] = test: Induction of membrane morphological changes in methicillin-resistant Staphylococcus aureus clinical isolate 16 assessed as visible cell surface wrinkles and disruption at 10 ug/ml by scanning electron microscopy; format: subcellular; conditions: dose 10.0 µg/ml

SMILES: C=CCc1ccc(OCCC[N+](C)(C)CC(=O)NCCCC)c(-c2ccc(OCCC[N+](C)(C)CC(=O)NCCCC)c(CC=C)c2)c1.[Br-].[Br-]
- Activity (Staphylococcus aureus [1]): Active
- Activity (Cell membrane [2]): Active
- HC50 at 1 h [3]: 789 µg/mL
- MIC (Escherichia coli): 4 µg/mL
- Activity (Cell membrane [4]): Active
- MIC (Staphylococcus aureus [5]): 1 µg/mL
- MIC (Micrococcus luteus): 2 µg/mL
- MIC (Staphylococcus aureus [6]): 0.5 µg/mL
- fold change (FC) (Staphylococcus aureus [7]): 128
- MIC (Salmonella enterica): 4 µg/mL
- Activity (Cell membrane [8]): Active
